Test results: PubChem BioAssay AID489027 (Sanford-Burnham Center for Chemical Genomics, 2010)
pEC50: −log10 of the molar value. Activity calls are given as the source filed them. The rule behind the calls is not given here.

Each molecule was assayed against UPR counterscreen luciferase reporter, luminescence (assay: activators in UPR counterscreen luciferase reporter, dose response, counter-screen for adaptive UPR activator project, cell-based, luminescence (AID 489027)).
Molecule CCc1ccc(N2C(=O)NC(=O)/C(=C\c3cccn3CCOc3ccc(C(C)C)cc3)C2=O)cc1 has a pEC50 of 5.20. CC(C)(C)c1ccc(C(=O)Nc2ccc(O)c3c(=O)cc(-c4cccc(Cl)c4)oc23)cc1 was tested, and the EC50 was > 80 µM (inactive). Cc1ccc(N=Cc2c(O)n(-c3ccc4c(c3)OCO4)c(=O)c3ccccc23)cc1 was tested, and the EC50 was > 80 µM (inactive). COc1ccc(/C=N/Nc2nnc(-c3ccccc3)c(=O)[nH]2)cc1 gave a pEC50 of 4.81. In the case of O=C(Nc1ccc(SC(F)F)cc1)c1cc(-c2ccncc2)nc2ccccc12, the EC50 was > 80 µM (inactive). In the case of CCOc1cc(/C=N\Nc2ccc([N+](=O)[O-])cc2)ccc1OCC(=O)Nc1ccc(C)c(C)c1, the EC50 was > 80 µM (inactive). With COc1ccc(-c2nn(-c3ccccc3)cc2/C=C/C(=O)OCC(=O)Nc2cccc(C#N)c2)cc1 the EC50 was > 80 µM (inactive). In the case of O=C(N/N=C/C(Br)=C\c1ccccc1)c1n[nH]c2c1CCC2, the EC50 was “inactive”. CCc1ccc(-n2c(SCC(=O)c3ccc4c(c3)NC(=O)CO4)nc3ccccc3c2=O)cc1 showed a pEC50 of 5.03. CN(/N=C\c1ccc(O)c(O)c1)c1nc(-c2ccccc2)cc(-c2ccccc2)n1 showed a pEC50 of 5.12. With Cc1nc(NC(=O)CSc2ccc(-c3nc4ccccc4[nH]3)cn2)sc1C the EC50 was “inactive”. With Cc1nc2cc(NC(=O)CSc3nc4c(C)cccc4cc3C#N)ccc2s1 the EC50 was > 80 µM (inactive). CCc1cc2c(C)ccc(C)c2nc1SCC(=O)Nc1c[nH]c(=O)[nH]c1=O was tested, and the pEC50 was 4.77. For CC1CCN(Cc2c(C(=O)N/N=C/c3ccc(C(C)C)cc3)nnn2-c2nonc2N)CC1, the EC50 was “inactive”. In the case of COc1cc(-c2ccc3oc(-c4ccsc4)cc3c2)cc(OC)c1OC, the EC50 was > 80 µM (inactive). Work on CCCC[C@@H](C)C[C@@H](C)C(=O)N(C)[C@@H](CC(C)C)C(=O)N[C@H](C(=O)N(C)[C@H](C(=O)N1C[C@@H](O)C[C@H]1C(=O)N1C(=O)C=C[C@@H]1C)C(C)C)C(C)OC(C)=O (stereo not given in full) yielded a pEC50 of 5.11. With OCCCn1c(C2CCCN2c2nc(-c3ccc(F)cc3)cs2)nc2cc(Cl)c(N3CCCCC3)cc21 (stereo not given) the EC50 was > 80 µM (inactive). For Brc1ccc(-c2ccc(/C=N/Nc3nncc(-c4ccccc4)n3)o2)cc1, the pEC50 was 4.76. In the case of CC(=O)c1cccc(Nc2nc(-c3cccc([N+](=O)[O-])c3)cs2)c1, the EC50 was > 80 µM (inactive). CCOc1ccc(NC(=O)C(Cc2ccccc2)N2C(=O)c3cccc4cccc(c34)C2=O)cc1 (stereo not given) was tested, and the EC50 was > 80 µM (inactive). C/C(=N\Nc1ncnc2sc(C)c(C)c12)c1ccccn1 was tested, and the pEC50 was 5.59. With CCOC(=O)c1sc(-c2ccccc2)cc1NC(=O)Nc1ccc([N+](=O)[O-])cc1 the pEC50 was 4.79. In the case of CCOC(=O)c1c(-c2ccc(C)o2)csc1NC(=O)COC(=O)c1ccc(NC(N)=O)cc1, the EC50 was > 80 µM (inactive). In the case of COc1ccc2c(c1)[nH]c1c(=O)n(/N=C/C3C(C)C=C(C)CC3C)c(=O)[nH]c12 (stereo not given), the EC50 was “inactive”. c1ccc(Oc2c3ccccc3nc3ccccc23)cc1 was tested, and the EC50 was “inactive”. O=[N+]([O-])c1ccc(Cl)c(-c2ccc(/C=N/c3c(-c4ccco4)nc4ccccn34)o2)c1 was tested, and the EC50 was “inactive”. In the case of Cc1c(NC(=O)CSc2ccc(Cl)cc2)cccc1-c1nc2cc(Cl)ccc2o1, the EC50 was > 80 µM (inactive). Work on Nc1nc(-c2cc(O)ccc2[N+](=O)[O-])cc(-c2ccccc2)c1[N+](=O)[O-] yielded a pEC50 of 5.10. O=C(Nc1ccc2nc3n(c(=O)c2c1)CCCCC3)c1ccccc1Cl was tested, and the EC50 was > 80 µM (inactive). CN(C)CCCN(C(=O)c1ccc(S(=O)(=O)N2CCc3ccccc3C2)cc1)c1nc2ccc(F)cc2s1 was tested, and the pEC50 was 5.09. For COc1ccc(CCn2c(C3CCCCC3)nc3c(c(=O)c4ccccc4n3C)c2=O)cc1, the EC50 was > 80 µM (inactive). In the case of Cc1sc(NC(=O)c2cc(-c3ccc(Cl)cc3)nc3ccccc23)c(C(N)=O)c1C, the EC50 was > 80 µM (inactive). COC(=O)c1c(C)oc2ccc(N(C(=O)Oc3ccccc3)S(=O)(=O)c3ccc(Cl)c([N+](=O)[O-])c3)cc12 was tested, and the pEC50 was 4.90. O=[N+]([O-])c1cc(-c2ccc(/C=N/c3nc4ccccn4c3-c3ccco3)o2)ccc1Cl was tested, and the EC50 was > 80 µM (inactive). In the case of CCOC(=O)N1CCN(S(=O)(=O)c2ccc(C(=O)Nc3nc4c(s3)CC(C)CC4)cc2)CC1 (stereo not given), the pEC50 was 5.03. Work on CN(C)CCOc1ccc(-c2c(-c3ccccc3)sc3ccccc23)cc1 yielded a pEC50 of 4.77. C#CCn1c(=NC(=O)c2ccc(Cl)s2)sc2cccc(OC)c21 was tested, and the EC50 was > 80 µM (inactive). With Cc1ccc(-n2nc3c(N4CCC(C(=O)NCCc5ccccc5C)CC4)nnc(C)c3c2C)cc1 the EC50 was > 80 µM (inactive). For CCCCCCCC(=O)Nc1ccc(C(=O)N/N=C/c2cccc([N+](=O)[O-])c2)cc1, the pEC50 was 5.63. In the case of CCOC(=O)c1c(NC(=O)CSc2nnc3c(n2)[nH]c2ccc(F)cc23)sc(C(C)=O)c1C, the pEC50 was 4.76. CC(=O)Nc1ccccc1Sc1ccc2c3c(cccc13)C(=O)N(c1ccc(C)cc1)C2=O was tested, and the EC50 was > 80 µM (inactive). With N#Cc1cc2c(nc1SCC(=O)Nc1sc3c(c1C#N)CCC3)CCCC2 the EC50 was “inactive”. For O=C(NC(=S)Nc1cc(-c2nc3ccccc3[nH]2)ccc1Cl)c1ccc2c(c1)OCO2, the pEC50 was 5.09. COc1ccc(-c2ccc3c(c2)S(=O)(=O)c2cccc(C(=O)NCCOc4ccccc4Cl)c2C3=O)cc1OC was tested, and the EC50 was > 80 µM (inactive). For CCOc1cccc(C(=O)Nc2cccc(-c3nnc(-c4ccc(C)cc4)o3)c2)c1, the pEC50 was 4.92.
